Results published in patent publication US20110053897A1 (IRM LLC, priority 2009, published 2011).

These compounds were tested against T1, Syk kinase (Homo sapiens, UniProt P43405) (assay: Syk kinase inhibition, Caliper LabChip off-chip mobility-shift kinase assay). Settings: Caliper LabChip assay; read-out: Syk Enzyme IC50.
T1 construct: purchased
Type: biochemical
Method in brief: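 Purified Syk pre-incubated 15 min with compound in 100 mM HEPES pH 7.5, 1 mM DTT, 10 mM MgCl2 or MnCl2, 0.002% Brij-35, then 1.5 μM fluorescein peptide and ATP at apparent KM added; 1–1.5 h at room temperature, 4% DMSO, EDTA stop. Microfluidic mobility-shift product/substrate conversion gave % inhibition; IC50 from 12-point series (10–0.00003 μM) by 4-parameter fit.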
`COCCN1CCC(Oc2cc(Nc3cc4ccn(CCO)c(=O)c4c(NC(C)(C)C)n3)ncn2)CC1` [compound 647, 8-(tert-butylamino)-2-(2-hydroxyethyl)-6-(6-(1-(2-methoxyethyl)piperidin-4-yloxy)pyrimidin-4-ylamino)-2,7-naphthyridin-1(2H)-one] gave an IC50 of 14 nM. In the case of `CC(C)(C)Nc1nc(Nc2cc(C3(O)COC3)ccn2)cc2ccn(CCO)c(=O)c12` [Compound No. 609, 8-(tert-butylamino)-2-(2-hydroxyethyl)-6-(4-(3-hydroxyoxetan-3-yl)pyridin-2-ylamino)-2,7-naphthyridin-1(2H)-one], the IC50 is reported as 12 nM. `CC(C)(C)Nc1nc(Nc2cc(C(=O)NO)ccn2)cc2ccn(CCO)c(=O)c12` [compound 879] showed an IC50 of 26 nM. `CC1(Cn2ccc3cc(-c4cnc(N)nc4)nc(NC4(C)CCC4)c3c2=O)COC1` [compound 932] gave an IC50 of 57 nM. With `CC(C)(C)Nc1nc(-c2cnc(N)nc2)cc2ccn(CC(N)=O)c(=O)c12` [compound 663] the IC50 was 43 nM. Work on `CCn1ccc2cc(Nc3cc(C)ccn3)nc(Nc3ccc(C(=O)N4CCC(O)C4)cc3)c2c1=O` (stereo not drawn) [compound 836] yielded an IC50 of 119 nM. Work on `CC1(Nc2nc(-c3cnc(N)nc3)cc3ccn(C4COC4)c(=O)c23)CCC1` [compound 931] yielded an IC50 of 15 nM. Work on `Cc1ccnc(Nc2cc3ccn(CCO)c(=O)c3c(NCC(C)(C)C)n2)c1` [compound 814] yielded an IC50 of 390 nM. In the case of `CC(C)(C)Nc1nc(Nc2cnccn2)cc2ccn(CCC(N)=O)c(=O)c12` [compound 661], the IC50 is reported as 10 nM. Work on `CCn1ccc2cc(Nc3cc(C)ccn3)nc(NC(C)(C)CCO)c2c1=O` [compound 782] yielded an IC50 of 217 nM. Compound `CC(C)n1ccc2cc(Nc3c[n+]([O-])ccn3)nc(N[C@H]3CC[C@@H](O)C3)c2c1=O` [compound 1017] has an IC50 of 25 nM. With `Nc1ncc(-c2cc3ccn(CCN4CCOCC4)c(=O)c3c(N[C@H]3CC[C@@H](O)CC3)n2)cn1` [compound 1029] the IC50 was 72 nM. Work on `CC(C)(C)Nc1nc(Nc2cc(N3CCCC(O)C3)ccn2)cc2ccn(CCO)c(=O)c12` (stereo not drawn) [compound 848] yielded an IC50 of 615 nM. Work on `CCn1ccc2cc(-c3cnc(N)nc3)nc(NC(C)(C)CO)c2c1=O` [compound 904] yielded an IC50 of 4 nM. `CC1(Cn2ccc3cc(Nc4cnccn4)nc(NC4CC(F)(F)C4)c3c2=O)COC1` [compound 765] gave an IC50 of 52 nM. Compound `CCn1ccc2cc(-c3cnc(N)nc3)nc(NC(C)(C)CCO)c2c1=O` [compound 1037] has an IC50 of 14 nM. For `Cn1ccc2cc(Nc3nccc(O)n3)nc(N[C@H]3CC[C@@H](O)CC3)c2c1=O` [compound 798], the IC50 was 128 nM. Compound `C[C@@H](CO)Oc1cc(Nc2cc3ccn(C[C@H](O)CO)c(=O)c3c(NC(C)(C)C)n2)ncn1` [compound 643, 8-(tert-butylamino)-2-((S)-2,3-dihydroxypropyl)-6-(6-((S)-1-hydroxypropan-2-yloxy)pyrimidin-4-ylamino)-2,7-naphthyridin-1(2H)-one] has an IC50 of 9 nM. Compound `CC(C)(Nc1nc(Nc2cnccn2)cc2ccn(CCO)c(=O)c12)C1CC1` [compound 670] has an IC50 of 89 nM. In the case of `CC(C)(C)Nc1nc(Nc2cc(C3(C(N)=O)CC3)ccn2)cc2ccn(CCO)c(=O)c12` [compound 859], the IC50 is reported as 170 nM. For `CC(C)(C)Nc1nc(Nc2cc(-c3c[nH]nc3C(F)(F)F)ncn2)cc2ccn(CCO)c(=O)c12` [compound 635, 8-(tert-butylamino)-2-(2-hydroxyethyl)-6-(6-(3-(trifluoromethyl)-1H-pyrazol-4-yl)pyrimidin-4-ylamino)-2,7-naphthyridin-1(2H)-one], the IC50 was 314 nM. Compound `CC(C)(C)Nc1nc(Nc2cc(C(O)CN)ccn2)cc2ccn(CCO)c(=O)c12` (stereo not drawn) [compound 612, 6-(4-(2-amino-1-hydroxyethyl)pyridin-2-ylamino)-8-(tert-butylamino)-2-(2-hydroxyethyl)-2,7-naphthyridin-1(2H)-one] has an IC50 of 453 nM. With `CC(C)(C)Nc1nc(-c2cnc(N)c(CO)c2)cc2ccn(CCO)c(=O)c12` [compound 720] the IC50 was 75 nM. `[2H]C([2H])([2H])n1ccc2cc(Nc3cc(C)c(Cl)cn3)nc(NC(C)(C)CO)c2c1=O` [compound 777] showed an IC50 of 137 nM. `CC(C)(C)Nc1nc(Nc2cnccn2)cc2ccn(Cc3cccnc3)c(=O)c12` [compound 1020] gave an IC50 of 164 nM. `CC(C)(O)Cn1ccc2cc(Nc3cc(C(C)(C)O)ncn3)nc(NC3(C)CCC3)c2c1=O` [compound 733] showed an IC50 of 92 nM. `Cc1ccnc(Nc2cc3ccn(C)c(=O)c3c(Nc3ccc(C)c(S(N)(=O)=O)c3)n2)c1` [compound 654] gave an IC50 of 250 nM. With `CC(C)Nc1nc(Nc2cc(N3CCC(O)CC3)ccn2)cc2ccn(CCO)c(=O)c12` [compound 852] the IC50 was 300 nM. For `C#CCn1ccc2cc(Nc3cnccn3)nc(NC(C)(C)C)c2c1=O` [compound 882], the IC50 was 51 nM.

Same assay, conditions: read-out: Syk Enzyme IC50
Work on `CCCc1cc2cc[nH]c(=O)c2c(Nc2ccc(N3CCO[C@H](C)C3)c(C)c2)n1` [compound 225] yielded an IC50 of 2300 nM. Work on `CCN1CCN(C2CCC(c3ccc(Nc4nc(-c5cncnc5)cc5cc[nH]c(=O)c45)cc3)CC2)CC1` (stereo not drawn) [compound 108] yielded an IC50 of 116 nM. `O=c1c2c(N[C@H]3CC[C@@H](O)CC3)nc(Nc3cc(Cl)ccn3)cc2ccn1CCO` [compound 384] was tested, and the IC50 was 17 nM. Work on `Cc1ccnc(Nc2cc3ccn(C)c(=O)c3c(N[C@H]3CC[C@@H](O)CC3)n2)c1` [compound 326] yielded an IC50 of 32 nM. Compound `Cn1ccc2cc(Nc3cnccn3)nc(NC(C)(C)C)c2c1=O` [compound 463] has an IC50 of 54 nM. `Cc1ccnc(Nc2cc3ccn(C)c(=O)c3c(N[C@H]3CCOC3)n2)c1` [compound 325] was tested, and the IC50 was 57 nM. `[2H]C([2H])([2H])n1ccc2cc(Nc3cc(C)ccn3)nc(N[C@H]3CC[C@@H](O)CC3)c2c1=O` [compound 378] gave an IC50 of 20 nM. Compound `O=c1[nH]ccc2cc(Nc3cc(C(F)(F)F)ccn3)nc(NC3CC3)c12` [compound 517] has an IC50 of 386 nM. `CCN1CCN(CCc2ccc(Nc3nc(-c4cncnc4)cc4c(F)c[nH]c(=O)c34)cc2)CC1` [compound 438] showed an IC50 of 289 nM. With `CCN1CCN(Cc2n[nH]c3cc(Nc4nc(-c5cncc(C(=O)N6CCOCC6)c5)cc5cc[nH]c(=O)c45)ccc23)CC1` [compound 207] the IC50 was 89 nM. With `O=c1[nH]ccc2cc(Nc3ccc([N+](=O)[O-])cn3)nc(Nc3ccc(N4CCOCC4)cc3)c12` [compound 565] the IC50 was 710 nM. `CC(C)CNc1nc(Nc2ccccn2)cc2cc[nH]c(=O)c12` [compound 288] showed an IC50 of 694 nM. Work on `C/C=C/c1cc2cc[nH]c(=O)c2c(Nc2ccc(C3CCN(C4CC4)CC3)c(C)c2)n1` [compound 228] yielded an IC50 of 1660 nM. `COc1cncc(-c2cc3cc[nH]c(=O)c3c(Nc3ccc(C4CCN(C(C)C(N)=O)CC4)c(C)c3)n2)n1` (stereo not drawn) [compound 136] showed an IC50 of 46 nM. `CCCN1CCC(c2ccc(Nc3nc(-c4cncc(OC)n4)cc4cc[nH]c(=O)c34)cc2C)CC1` [compound 55] gave an IC50 of 33 nM. `O=c1[nH]ccc2cc(CCO)nc(Nc3ccc(N4CCOCC4)cc3)c12` [compound 244] gave an IC50 of 31 nM. `COC[C@H](C)Nc1nc(Nc2cc(C)ccn2)cc2cc[nH]c(=O)c12` [compound 530] gave an IC50 of 97 nM. For `COc1cncc(-c2cc3cc[nH]c(=O)c3c(Nc3ccc(C4CNC4)cc3)n2)n1` [compound 145], the IC50 was 6 nM. Work on `CCN1CCN(CCc2ccc(Nc3nc(-c4cncc(OC)n4)cc4cc[nH]c(=O)c34)cc2)CC1C` (stereo not drawn) [compound 33] yielded an IC50 of 34 nM. Work on `O=c1[nH]ccc2cc(Nc3ccccn3)nc(NC3CCOCC3)c12` [compound 297] yielded an IC50 of 335 nM. `Cc1ccnc(Nc2cc3cc[nH]c(=O)c3c(NC3CCN(Cc4ccccc4)C3)n2)c1` (stereo not drawn) [compound 553] showed an IC50 of 550 nM. `COCC(C)(C)C(=O)N1CCC(c2ccc(Nc3nc(-c4cncc(OC)n4)cc4cc[nH]c(=O)c34)cc2C)CC1` [compound 8] showed an IC50 of 253 nM. For `Cc1ccnc(Nc2cc3ccn(C)c(=O)c3c(NC3CC3)n2)c1` [compound 534], the IC50 was 129 nM. With `CCN1CCC[C@@H]1CNc1nc(Nc2cc(C)ccn2)cc2cc[nH]c(=O)c12` [compound 589] the IC50 was 5560 nM. `CNC(=O)c1ccc(Nc2nc(Nc3cnccn3)cc3ccn(C)c(=O)c23)cc1` [compound 343] was tested, and the IC50 was 333 nM. With `[2H]C([2H])([2H])n1ccc2cc(Nc3cc(C)c(Cl)cn3)nc(NC3CC3)c2c1=O` [compound 548] the IC50 was 468 nM. Compound `Cc1ccc(Nc2cc3cc[nH]c(=O)c3c(Nc3ccc(C4CCN(CC(N)=O)CC4)c(C)c3)n2)nc1` [compound 558] has an IC50 of 489 nM. `CC(C)Nc1nc(-c2cnc(N)nc2)cc2ccn(CCO)c(=O)c12` [compound 32] gave an IC50 of 140 nM. `COc1cncc(-c2cc3c(F)c[nH]c(=O)c3c(Nc3ccc(N4CCOCC4)cc3)n2)n1` [compound 432] showed an IC50 of 623 nM. For `CCn1ccc2cc(Nc3cc(C)ccn3)nc(NC[C@H]3CC[C@@](C)(O)C3)c2c1=O` [compound 416], the IC50 was 176 nM. `CCCNC(=O)c1ccc(Nc2nc(Nc3cc(C)ccn3)cc3ccn(C)c(=O)c23)cc1` [compound 363] gave an IC50 of 551 nM. For `Cc1ccnc(Nc2cc3ccn(C)c(=O)c3c(NC(C)C)n2)c1` [compound 508], the IC50 was 153 nM. Compound `O=c1[nH]ccc2cc(-c3cncc(NC4CC4)n3)nc(Nc3ccc(N4CCOCC4)cc3)c12` [compound 48] has an IC50 of 83 nM. `Cc1ccnc(Nc2cc3cc[nH]c(=O)c3c(NC3CCN(C)CC3)n2)c1` [compound 550] showed an IC50 of 111 nM. Work on `O=c1[nH]ccc2cc(Nc3cc(CO)ccn3)nc(NC3CC3)c12` [compound 518] yielded an IC50 of 59 nM. For `CC(=O)N1CCC(c2ccc(Nc3nc(Nc4cnccn4)cc4ccn(C)c(=O)c34)cc2)CC1` [compound 345], the IC50 was 1220 nM. `CC(=O)c1cc2cc[nH]c(=O)c2c(Nc2ccc(N3CCO[C@H](C)C3)c(C)c2)n1` [compound 220] showed an IC50 of 807 nM. With `CCNC(=O)Cn1ccc2cc(Nc3cnccn3)nc(NC(C)C)c2c1=O` [compound 321] the IC50 was 177 nM. Work on `Cc1cc(Nc2nc(-c3cnc(N)c(C)c3)cc3cc[nH]c(=O)c23)ccc1C1CCN(CCC#N)CC1` [compound 69] yielded an IC50 of 28 nM. `[2H]C([2H])([2H])n1ccc2cc(Nc3cc(C)ccn3)nc(N[C@@H](C)CO)c2c1=O` [compound 398] gave an IC50 of 46 nM.
